Test results reported in US9695155B2, “Herbicidal substituted pyrimidinyloxy benzene compounds” (E. I. DU PONT DE NEMOURS AND COMPANY, priority 2013, dated 2017).

Assays:
lambsquarters = test: Test C postemergence; format: in vivo, Chenopodium album; settings: for Plant response rating, Lambsquarters / Lambsquarters plant response rating: scale 0 to 100 (0 no effect, 100 complete control)
Procedure, shortened: (§1)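 Visual injury score versus untreated controls, 0 = no effect, 100 = complete control, taken 13 to 15 days after treatment in the greenhouse. Pre-emergence pots held loam/sand; post-emergence plants grew in sphagnum peat/vermiculite mix and were sprayed at the 1- to 4-leaf stage.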

barnyardgrass [1] = test: Test A postemergence; format: in vivo, Echinochloa crus-galli; settings: 0 to 100 scale where 0 is no effect and 100 is complete control
Procedure, shortened: (§2)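 Pre- and postemergence greenhouse screen. Soil: loam + sand. Spray carrier: solvent mixture, non-phytotoxic, with surfactant. Post timing at 1–2 leaves, height 2–10 cm. Readout: visual injury on a 0–100 scale roughly 10 days after application, untreated plants as reference.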

galium [2] = test: Test C preemergence; format: in vivo, Galium aparine; settings: for Galium plant response rating: preemergence; for Plant response rating, Galium: Preemergence, scale 0 to 100, 0 no effect, 100 complete control
Procedure, shortened: as §1

waterhemp = test: Test C postemergence; format: in vivo, Amaranthus rudis; settings: for Plant response rating, Waterhemp / Waterhemp plant response rating: scale 0 to 100 (0 no effect, 100 complete control)
Procedure, shortened: as §1

corn [3] = test: Test C preemergence; format: in vivo, Zea mays; settings: for Corn plant response rating: preemergence; for Plant response rating, Corn: Preemergence, scale 0 to 100, 0 no effect, 100 complete control
Procedure, shortened: as §1

rice = test: Test B flooded paddy test; format: in vivo, Oryza sativa; settings: Flood, 250 g ai/ha; 0 to 100 scale where 0 is no effect and 100 is complete control
Procedure, shortened: (§3)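 2-leaf stage plants; pots flooded to 3 cm, compound added to paddy water, depth maintained. Greenhouse 13–15 d. Visual rating vs untreated controls, 0 (no effect) to 100 (complete control); dash = no result.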

Italian ryegrass = test: Test C postemergence; format: in vivo, Lolium multiflorum; settings: for Plant response rating, Ryegrass, Italian / Ryegrass, Italian plant response rating: scale 0 to 100 (0 no effect, 100 complete control)
Procedure, shortened: as §1

corn [4] = test: Test A postemergence; format: in vivo, Zea mays; settings: 0 to 100 scale where 0 is no effect and 100 is complete control
Procedure, shortened: as §2

Heteranthera limosa = test: Test B flooded paddy test; format: in vivo; settings: Flood, 250 g ai/ha; 0 to 100 scale where 0 is no effect and 100 is complete control
Procedure, shortened: as §3

barnyardgrass [5] = test: Test B flooded paddy test; format: in vivo, Echinochloa crus-galli; settings: Flood, 250 g ai/ha; 0 to 100 scale where 0 is no effect and 100 is complete control
Procedure, shortened: as §3

galium [6] = test: Test C postemergence; format: in vivo, Galium aparine; settings: for Galium plant response rating / Plant response rating, Galium: scale 0 to 100 (0 no effect, 100 complete control)
Procedure, shortened: as §1

pigweed = test: Test C postemergence; format: in vivo, Amaranthus retroflexus; settings: for Plant response rating, Pigweed / Pigweed plant response rating: scale 0 to 100 (0 no effect, 100 complete control)
Procedure, shortened: as §1

corn [7] = test: Test C postemergence; format: in vivo, Zea mays; settings: for Corn plant response rating / Plant response rating, Corn: scale 0 to 100 (0 no effect, 100 complete control)
Procedure, shortened: as §1

[8] = Postemergence, 31 g ai/ha, 13 to 15 days
[9] = 16 g ai/ha, scale 0 to 100 (0 no effect, 100 complete control)
[10] = 62 g ai/ha, scale 0 (no effect) to 100 (complete control)
[11] = 125 g ai/ha, scale 0 (no effect) to 100 (complete control)
[12] = 16 g ai/ha, postemergence, visual rating, 13 to 15 days
[13] = 16 g ai/ha, postemergence, 0 is no effect, 100 is complete control
[14] = 31 g ai/ha, postemergence, visual rating, 13 to 15 days
[15] = 125 g ai/ha, postemergence, visual rating

Compound: Fc1cnc(Oc2cccc(C(F)F)c2-n2cc(Cl)cn2)nc1 [Compound 94]
- Plant response rating (0 to 100), Lambsquarters (lambsquarters; 125 g ai/ha, postemergence): 85
- Plant response rating, Lambsquarters (lambsquarters; [8]): 65
- Plant response rating, Lambsquarters (lambsquarters; Postemergence, 62 g ai/ha): 75
- Plant response rating, Barnyardgrass (barnyardgrass [1]; 125 g ai/ha): 20
- Plant response rating, Barnyardgrass (barnyardgrass [1]; 500 g ai/ha): 90
- Galium plant response rating (galium [2]; [9]): 80
- Galium plant response rating (galium [2]; [10]): 98
- Galium plant response rating (galium [2]; [11]): 100
- Plant response rating, Galium (galium [2]; 31 g ai/ha): 98
- Plant response rating (0 to 100), Waterhemp (waterhemp; 125 g ai/ha, postemergence): 70
- Plant response rating, Waterhemp (waterhemp; [8]): 80
- Plant response rating, Waterhemp (waterhemp; Postemergence, 62 g ai/ha): 75
- Corn plant response rating (corn [3]; [9]): 5
- Corn plant response rating (corn [3]; [10]): 5
- Corn plant response rating (corn [3]; [11]): 55
- Plant response rating, Corn (corn [3]; 31 g ai/ha): 5
- Plant response rating, Rice (rice): 0
- Plant response rating (0 to 100), Ryegrass, Italian (Italian ryegrass; 125 g ai/ha, postemergence): 5
- Plant response rating, Ryegrass, Italian (Italian ryegrass; [8]): 0
- Plant response rating, Ryegrass, Italian (Italian ryegrass; Postemergence, 62 g ai/ha): 0
- Plant response rating, Corn (corn [4]; 125 g ai/ha): 30
- Plant response rating, Corn (corn [4]; 500 g ai/ha): 50
- Plant response rating, Ducksalad (Heteranthera limosa): 40
- Plant response rating, Barnyardgrass (barnyardgrass [5]): 0
- Galium plant response rating (galium [6]; [12]): 45
- Plant response rating (0 to 100), Galium (galium [6]; 125 g ai/ha, postemergence): 80
- Plant response rating, Galium (galium [6]; [8]): 70
- Plant response rating, Galium (galium [6]; Postemergence, 62 g ai/ha): 80
- Plant response rating (0 to 100), Pigweed (pigweed; 125 g ai/ha, postemergence): 85
- Plant response rating, Pigweed (pigweed; [8]): 80
- Plant response rating, Pigweed (pigweed; Postemergence, 62 g ai/ha): 80
- Corn plant response rating (corn [7]; [12]): 5
- Plant response rating (0 to 100), Corn (corn [7]; 125 g ai/ha, postemergence): 5
- Plant response rating, Corn (corn [7]; [8]): 5
- Plant response rating, Corn (corn [7]; Postemergence, 62 g ai/ha): 35

Compound: N#Cc1cccc(Oc2ncc(Cl)cn2)c1-n1cc(OC(F)F)cn1 [Compound 97]
- Plant response rating (0 to 100), Lambsquarters (lambsquarters; 125 g ai/ha, postemergence): 98
- Plant response rating, Lambsquarters (lambsquarters; [8]): 75
- Plant response rating, Lambsquarters (lambsquarters; Postemergence, 62 g ai/ha): 80
- Plant response rating, Barnyardgrass (barnyardgrass [1]; 125 g ai/ha): 90
- Plant response rating, Barnyardgrass (barnyardgrass [1]; 500 g ai/ha): 100
- Galium plant response rating (galium [2]; [9]): 85
- Galium plant response rating (galium [2]; [10]): 98
- Galium plant response rating (galium [2]; [11]): 95
- Plant response rating, Galium (galium [2]; 31 g ai/ha): 90
- Plant response rating (0 to 100), Waterhemp (waterhemp; 125 g ai/ha, postemergence): 95
- Plant response rating, Waterhemp (waterhemp; [8]): 85
- Plant response rating, Waterhemp (waterhemp; Postemergence, 62 g ai/ha): 90
- Corn plant response rating (corn [3]; [9]): 0
- Corn plant response rating (corn [3]; [10]): 45
- Corn plant response rating (corn [3]; [11]): 80
- Plant response rating, Corn (corn [3]; 31 g ai/ha): 5
- Plant response rating, Rice (rice): 0
- Plant response rating (0 to 100), Ryegrass, Italian (Italian ryegrass; 125 g ai/ha, postemergence): 15
- Plant response rating, Ryegrass, Italian (Italian ryegrass; [8]): 5
- Plant response rating, Ryegrass, Italian (Italian ryegrass; Postemergence, 62 g ai/ha): 5
- Plant response rating, Corn (corn [4]; 125 g ai/ha): 60
- Plant response rating, Corn (corn [4]; 500 g ai/ha): 90
- Plant response rating, Ducksalad (Heteranthera limosa): 95
- Plant response rating, Barnyardgrass (barnyardgrass [5]): 40
- Galium plant response rating (galium [6]; [12]): 55
- Plant response rating (0 to 100), Galium (galium [6]; 125 g ai/ha, postemergence): 90
- Plant response rating, Galium (galium [6]; [8]): 75
- Plant response rating, Galium (galium [6]; Postemergence, 62 g ai/ha): 85
- Plant response rating (0 to 100), Pigweed (pigweed; 125 g ai/ha, postemergence): 95
- Plant response rating, Pigweed (pigweed; [8]): 85
- Plant response rating, Pigweed (pigweed; Postemergence, 62 g ai/ha): 85
- Corn plant response rating (corn [7]; [12]): 5
- Plant response rating (0 to 100), Corn (corn [7]; 125 g ai/ha, postemergence): 15
- Plant response rating, Corn (corn [7]; [8]): 5
- Plant response rating, Corn (corn [7]; Postemergence, 62 g ai/ha): 10

Compound: Fc1cnc(Oc2cccc(C(F)F)c2-n2cc(C(F)(F)F)cn2)nc1 [Compound 164]
- Plant response rating (0 to 100), Lambsquarters (lambsquarters; [13]): 15
- Lambsquarters plant response rating (lambsquarters; [14]): 25
- Plant response rating, Lambsquarters (lambsquarters; [15]): 65
- Plant response rating, Lambsquarters (lambsquarters; Postemergence, 62 g ai/ha): 40
- Barnyardgrass plant response rating (barnyardgrass [1]; 125 g ai/ha): 70
- Plant response rating, Barnyardgrass (barnyardgrass [1]; 500 g ai/ha): 100
- Galium plant response rating (galium [2]; [9]): 75
- Galium plant response rating (galium [2]; [10]): 95
- Galium plant response rating (galium [2]; [11]): 95
- Plant response rating, Galium (galium [2]; 31 g ai/ha): 100
- Plant response rating (0 to 100), Waterhemp (waterhemp; [13]): 50
- Waterhemp plant response rating (waterhemp; [14]): 45
- Plant response rating, Waterhemp (waterhemp; [15]): 75
- Plant response rating, Waterhemp (waterhemp; Postemergence, 62 g ai/ha): 65
- Corn plant response rating (corn [3]; [9]): 0
- Corn plant response rating (corn [3]; [10]): 5
- Corn plant response rating (corn [3]; [11]): 45
- Plant response rating, Corn (corn [3]; 31 g ai/ha): 5
- Plant response rating, Rice (rice): 0
- Plant response rating (0 to 100), Ryegrass, Italian (Italian ryegrass; [13]): 0
- Ryegrass, Italian plant response rating (Italian ryegrass; [14]): 0
- Plant response rating, Ryegrass, Italian (Italian ryegrass; [15]): 0
- Plant response rating, Ryegrass, Italian (Italian ryegrass; Postemergence, 62 g ai/ha): 0
- Corn plant response rating (corn [4]; 125 g ai/ha): 40
- Plant response rating, Corn (corn [4]; 500 g ai/ha): 90
- Plant response rating, Ducksalad (Heteranthera limosa): 100
- Plant response rating, Barnyardgrass (barnyardgrass [5]): 20
- Plant response rating (0 to 100), Galium (galium [6]; [13]): 50
- Galium plant response rating (galium [6]; [14]): 55
- Plant response rating, Galium (galium [6]; [15]): 65
- Plant response rating, Galium (galium [6]; Postemergence, 62 g ai/ha): 80
- Plant response rating (0 to 100), Pigweed (pigweed; [13]): 50
- Pigweed plant response rating (pigweed; [14]): 75
- Plant response rating, Pigweed (pigweed; [15]): 80
- Plant response rating, Pigweed (pigweed; Postemergence, 62 g ai/ha): 75
- Plant response rating (0 to 100), Corn (corn [7]; [13]): 0
- Corn plant response rating (corn [7]; [14]): 5
- Plant response rating, Corn (corn [7]; [15]): 5
- Plant response rating, Corn (corn [7]; Postemergence, 62 g ai/ha): 5

Compound: Cc1cnc(Oc2cccc(C#N)c2-n2cc(C(F)(F)F)cn2)nc1 [Compound 180]
- Plant response rating (0 to 100), Lambsquarters (lambsquarters; [13]): 35
- Lambsquarters plant response rating (lambsquarters; [14]): 55
- Plant response rating, Lambsquarters (lambsquarters; [15]): 85
- Plant response rating, Lambsquarters (lambsquarters; Postemergence, 62 g ai/ha): 75
- Barnyardgrass plant response rating (barnyardgrass [1]; 125 g ai/ha): 90
- Plant response rating, Barnyardgrass (barnyardgrass [1]; 500 g ai/ha): 100
- Galium plant response rating (galium [2]; [9]): 80
- Galium plant response rating (galium [2]; [11]): 100
- Plant response rating, Galium (galium [2]; 62 g ai/ha): 100
- Plant response rating (0 to 100), Waterhemp (waterhemp; [13]): 25
- Waterhemp plant response rating (waterhemp; [14]): 60
- Plant response rating, Waterhemp (waterhemp; [15]): 75
- Plant response rating, Waterhemp (waterhemp; Postemergence, 62 g ai/ha): 70
- Corn plant response rating (corn [3]; [9]): 5
- Corn plant response rating (corn [3]; [11]): 65
- Plant response rating, Corn (corn [3]; 62 g ai/ha): 30
- Plant response rating, Rice (rice): 40
- Plant response rating (0 to 100), Ryegrass, Italian (Italian ryegrass; [13]): 0
- Ryegrass, Italian plant response rating (Italian ryegrass; [14]): 0
- Plant response rating, Ryegrass, Italian (Italian ryegrass; [15]): 10
- Plant response rating, Ryegrass, Italian (Italian ryegrass; Postemergence, 62 g ai/ha): 5
- Corn plant response rating (corn [4]; 125 g ai/ha): 70
- Plant response rating, Corn (corn [4]; 500 g ai/ha): 90
- Plant response rating, Ducksalad (Heteranthera limosa): 80
- Plant response rating, Barnyardgrass (barnyardgrass [5]): 60
- Plant response rating (0 to 100), Galium (galium [6]; [13]): 50
- Galium plant response rating (galium [6]; [14]): 55
- Plant response rating, Galium (galium [6]; [15]): 90
- Plant response rating, Galium (galium [6]; Postemergence, 62 g ai/ha): 60
- Plant response rating (0 to 100), Pigweed (pigweed; [13]): 10
- Pigweed plant response rating (pigweed; [14]): 55
- Plant response rating, Pigweed (pigweed; [15]): 70
- Plant response rating, Pigweed (pigweed; Postemergence, 62 g ai/ha): 60
- Plant response rating (0 to 100), Corn (corn [7]; [13]): 0
- Corn plant response rating (corn [7]; [14]): 5
- Plant response rating, Corn (corn [7]; [15]): 10
- Plant response rating, Corn (corn [7]; Postemergence, 62 g ai/ha): 5
